In the experiment the test system is hyaluronan transport/export in fibroblasts. Nature of the experiment: Assay for hyaluronan transport/export activators in fibroblast cell culture (hyaluronan in culture medium by ELISA). It is filed as cell-based. The settings on record: 2 days at 37° C. As for the experimental part:
Compound 89 activates 4,7fold, while compound 101 activates 2,4fold. The “activatory capability” as described herein is expressed as the ratio of hyaluronan exported in the presence and absence of the compound. Methods to determine the hyaluronan transport are disclosed herein, and are also disclosed in great detail in WO2005/013947.
Trypsinised fibroblasts were suspended in Dulbeccos medium at 10^5 cells/ml and 100 μl aliquots were transferred to a 96 well microtiter plate. The first row received 200 μl of the suspension and 20 μl of the activators of the invention dissolved in phosphate buffered saline at concentrations of 4 mM. A serial dilution of the activators was established by transfer of 100 μl aliquots from the first row to the following rows. All experiments were performed in duplicates. […] The cells were incubated for 2 days at 37° C. and aliquots (5 and 20 μl) of the culture medium were used for measurement of the hyaluronan concentration in the cell culture medium by an ELISA [125]. […] The adsorption was read at 490 nm. The concentrations in the samples were calculated from a logarithmic regression curve of the hyaluronan standard solutions. […]
A general note: ELISA stands for enzyme-linked immunosorbent assay.

Structures are written as SMILES.

Consider `CC(=O)Nc1c(O)cc(O)cc1Oc1ccc(N)cc1C(=O)O` [Compound 89], for which the “activatory capability: ratio of hyaluronan exported in the presence and absence of the compound” value is given as 4,7 fold. For `CC(=O)Nc1c(O)cccc1Oc1ccc(N)cc1C(=O)O` [Compound 101], the “activatory capability: ratio of hyaluronan exported in the presence and absence of the compound” value is on record as 2,4 fold.

The values are drawn from US20110245192A1, “NEW ACTIVATORS FOR TREATING AND/OR PREVENTING DISEASES OR MEDICAL CONDITIONS WHICH BENEFIT FROM AN INCREASED TRANSPORT OF HYALURONAN ACROSS A LIPID BILAYER” (priority 2008, published 2011).
